According to patent US20080318974A1, “Compounds Useful for Inhibiting Chk1” (Icos Corporation, priority 2004, published 2008):

Tested on: HT29 and Colo205 (human colon carcinoma) and H460 and Calu-6 (nonsmall cell carcinoma) xenograft tumors
Test: Xenograft animal tumor models
Type: in vivo
Settings: gemcitabine 160 mg/kg i.p., Balb/c (nu/nu) mice
Excerpt: To test the ability of the Chk1 inhibitors of the invention to enhance the killing of tumors by DNA damaging agents in mice, xenograft tumor models using colon tumor cell lines are established. 5-fluorouracil (5-FU) or gemcitabine can be used as DNA damaging agents. HT29 and Colo205 (human colon carcinoma) and H460 and Calu-6 (nonsmall cell carcinoma) cells can be used to propagate xenograft tumors in 6-8 week old female […] Balb/c (nu/nu) mice. Mice are maintained in a laminar airflow cabinet under pathogen-free conditions and fed sterile food and water ad libitum. Cell lines are grown to subconfluence in RPMI 1640 media supplemented with 10% FBS, 100 U/mL penicillin, 100 μg/mL streptomycin, and 1.5 mM L-glutamine in a 5% CO2 humidified environment. Single cell suspensions are prepared in CMF-PBS, and cell concentration adjusted to 1×10^8 cells/mL. Mice are inoculated subcutaneously (s.c.) on the right flank or right leg with a total of 1×10^7 cells (100 μL). Mice are randomized (5-15 mice/group) into four treatment groups and used when tumors reach a volume of […] (usually 7-11 days post-inoculation). Tumors are measured with […] calipers and tumor volumes are estimated using the empirically derived formula: tumor volume (cm^3)=tumor length (cm) x tumor width (cm)×tumor depth (cm)/3.3. […] Tumor size is monitored every other day for the duration of the experiment.

Nc1ccn([C@@H]2O[C@H](CO)[C@@H](O)C2(F)F)c(=O)n1 [gemcitabine, 2′,2′ difluoro-2′-deoxycytidine]
tumor growth: delay in tumor growth
